Assay [1] addresses T1, Aedes albopictus EcRs (Aedes albopictus, UniProt Q9U3Y4).
T1 sequence (Q9U3Y4 1-680): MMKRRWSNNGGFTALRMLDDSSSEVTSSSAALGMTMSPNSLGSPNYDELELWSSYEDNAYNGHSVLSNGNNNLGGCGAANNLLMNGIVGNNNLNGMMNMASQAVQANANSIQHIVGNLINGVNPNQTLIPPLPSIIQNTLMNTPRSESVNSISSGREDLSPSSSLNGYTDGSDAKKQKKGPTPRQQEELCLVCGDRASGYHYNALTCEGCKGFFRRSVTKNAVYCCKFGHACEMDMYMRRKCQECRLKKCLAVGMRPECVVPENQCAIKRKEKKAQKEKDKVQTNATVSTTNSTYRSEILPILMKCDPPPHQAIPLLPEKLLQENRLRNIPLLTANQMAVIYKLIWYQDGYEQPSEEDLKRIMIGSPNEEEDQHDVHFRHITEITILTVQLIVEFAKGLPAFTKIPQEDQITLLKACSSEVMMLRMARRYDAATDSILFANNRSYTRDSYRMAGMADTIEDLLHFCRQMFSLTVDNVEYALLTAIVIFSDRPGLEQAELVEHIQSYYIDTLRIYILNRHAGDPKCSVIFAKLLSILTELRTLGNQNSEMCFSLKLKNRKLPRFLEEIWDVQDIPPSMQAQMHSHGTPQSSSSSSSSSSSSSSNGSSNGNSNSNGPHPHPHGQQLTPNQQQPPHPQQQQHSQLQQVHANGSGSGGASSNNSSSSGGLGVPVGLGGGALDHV
T1 sequence (Q9U3Y3 1-485 partner): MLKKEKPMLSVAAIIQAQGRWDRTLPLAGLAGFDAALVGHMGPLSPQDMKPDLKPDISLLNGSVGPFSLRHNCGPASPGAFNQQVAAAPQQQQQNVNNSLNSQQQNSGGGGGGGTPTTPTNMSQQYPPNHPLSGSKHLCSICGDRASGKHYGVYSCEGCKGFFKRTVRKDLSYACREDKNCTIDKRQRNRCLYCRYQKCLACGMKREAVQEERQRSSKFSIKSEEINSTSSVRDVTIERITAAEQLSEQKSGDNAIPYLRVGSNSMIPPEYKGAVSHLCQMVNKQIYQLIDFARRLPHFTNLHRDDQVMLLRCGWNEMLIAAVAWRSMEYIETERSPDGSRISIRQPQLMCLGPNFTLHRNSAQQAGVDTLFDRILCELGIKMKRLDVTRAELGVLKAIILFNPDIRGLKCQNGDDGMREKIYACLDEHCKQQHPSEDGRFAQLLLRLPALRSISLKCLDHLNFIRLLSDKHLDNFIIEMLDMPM
The assay is classed as binding. To be noted: for change in binding potency compared to the parent compound: 21, 22, 23 vs. 1, 28, 31 vs. 22; for pIC50 (M): Series II, [3H]PonA binding, NIAS-AeAl-2 cells, 30 min, 25°C, mean±SD.

Assay [2] relates to A. albopictus larvae. Kind of assay: Larvicidal assay on second-instar larvae. The assay is classed as in vivo, Aedes albopictus. The note with it: for larvicidal activity (in words): 1 µM, 3 days; for mortality at 1 µM / LC50: Aedes albopictus, 72 h; for mortality at 1 µM: read-out: Mortality (%) at 1 µM Obsd.; for LC50: read-out: pLC50 (M) (converted); for Logit A Obsd.: logit-transformed mortality at 1 µM based on Eq. 1.

From paper PMC7953027 (Journal of Pesticide Science, 2021) come the findings set out here.

The mortality is the percentage killed. For `C[C@@H]1C[C@H](Nc2ccccc2)c2cc(F)ccc2N1C(=O)c1ccccn1` [Compound 21, (2R,4S)-6-fluoro-2-methyl-4-(phenylamino)-1-(2-pyridylcarbonyl)-1,2,3,4-tetrahydroquinoline], in assay [1], the “change in binding potency compared to the parent compound” value (shortened to “change in binding potency”) is on record as “threefold loss in potency” and the “pIC50 (M)” value is recorded as 5.93±0.08 (2) M. Also, in assay [2], the “larvicidal activity (in words)” value was “did not show larvicidal activity” and the mortality at 1 µM turned out to be 0%.
For the molecule `C[C@@H]1C[C@H](Nc2ccccc2)c2cc(F)ccc2N1C(=O)c1cccnc1` [Compound 22], the “pIC50 (M)” value in assay [1] is 6.76±0.15 (2) M. Besides, in assay [2], the “larvicidal activity (in words)” value is recorded as “did not show larvicidal activity” and the mortality at 1 µM is 0%.
Regarding `C[C@@H]1C[C@H](Nc2ccccc2)c2cc(F)ccc2N1C(=O)c1ccncc1` [Compound 23, (2R,4S)-6-fluoro-2-methyl-4-(phenylamino)-1-(4-pyridylcarbonyl)-1,2,3,4-tetrahydroquinoline], in assay [1], the “change in binding potency” value is “eightfold gain in potency” and the “pIC50 (M)” value is given as 7.29±0.03 (2) M. In assay [2], the mortality at 1 µM was 36 ± 14%, the LC50 is 2.57e-06 M and the “Logit A Obsd.” value is on record as −0.24.
Turning to `C[C@@H]1C[C@H](Nc2ccccc2)c2cc(F)ccc2N1C(=O)c1ccncn1` [Compound 24], in assay [1], the “pIC50 (M)” value is on record as 6.67±0.03 (2) M. Further, in assay [2], the mortality at 1 µM came to 10% and the “Logit A Obsd.” value is recorded as −0.95.
Taken in the same sequence, the figures for `C[C@@H]1C[C@H](Nc2ccccc2)c2cc(F)ccc2N1C(=O)c1ccnnc1` [Compound 25] were 6.51±0.13 (2) M, 10% and −0.95.
The matching figures for `C[C@@H]1C[C@H](Nc2ccccc2)c2cc(F)ccc2N1C(=O)c1cncnc1` [Compound 26]: 6.37±0.02 (2) M, 5% and −1.28.
The matching figures for `C[C@@H]1C[C@H](Nc2ccccc2)c2cc(F)ccc2N1C(=O)c1cnc(Cl)nc1` [Compound 27]: 6.11±0.12 (2) M, 16% and −0.72.
Consider `Cc1ccc(C(=O)N2c3ccc(F)cc3[C@@H](Nc3ccccc3)C[C@H]2C)cn1` [Compound 28], for which, in assay [1], the “change in binding potency” value is given as “equipotent” and the “pIC50 (M)” value was 6.64±0.08 (2) M. Further, in assay [2], the mortality at 1 µM worked out at 11% and the “Logit A Obsd.” value was −0.91.
In the case of `C[C@@H]1C[C@H](Nc2ccccc2)c2cc(F)ccc2N1C(=O)c1ccc(Cl)nc1` [Compound 29], the “pIC50 (M)” value in assay [1] is given as 7.09±0.07 (2) M. Besides, in assay [2], the mortality at 1 µM worked out at 80%, the LC50 is 4.57e-07 M and the “Logit A Obsd.” value stood at 0.60.
The matching figures for `C[C@@H]1C[C@H](Nc2ccccc2)c2cc(F)ccc2N1C(=O)c1ccc(C(F)(F)F)nc1` [Compound 30]: 7.03±0.00 (2) M, 44 ± 24%, 9.55e-07 M and −0.10.
In the case of `C[C@@H]1C[C@H](Nc2ccccc2)c2cc(F)ccc2N1C(=O)c1ccc(C#N)nc1` [Compound 31], in assay [1], the “change in binding potency” value is “sevenfold gain in potency” and the “pIC50 (M)” value is 7.61±0.08 (2) M. Also, in assay [2], the mortality at 1 µM was 77 ± 19%, the LC50 was 5.13e-07 M and the “Logit A Obsd.” value worked out at 0.51.
Turning to `C[C@@H]1C[C@H](Nc2ccccc2)c2cc(F)ccc2N1C(=O)c1ccnc(F)c1` [Compound 32], the “pIC50 (M)” value in assay [1] was 7.47±0.08 (2) M. For the same molecule, in assay [2], the mortality at 1 µM was found to be 74 ± 11%, the LC50 was 4.68e-07 M and the “Logit A Obsd.” value is reported as 0.44.
For `C[C@@H]1C[C@H](Nc2ccccc2)c2cc(F)ccc2N1C(=O)c1ccnc(C(F)(F)F)c1` [Compound 34], the “pIC50 (M)” value in assay [1] is reported as 6.56±0.04 (2) M. In addition, in assay [2], the “larvicidal activity (in words)” value is on record as “did not show larvicidal activity” and the mortality at 1 µM amounted to 0%.
For the molecule `C[C@@H]1C[C@H](Nc2ccccc2)c2cc(F)ccc2N1C(=O)c1ccnc(C#N)c1` [Compound 35], the “pIC50 (M)” value in assay [1] is listed as 6.55±0.07 (2) M. Also, in assay [2], the “larvicidal activity (in words)” value is reported as “did not show larvicidal activity” and the mortality at 1 µM came to 0%.
